{
  "source": "paper PMC9820444",
  "about": "“Design and Synthesis of Acridine-Triazole and Acridine-Thiadiazole Derivatives and Their Inhibitory Effect against Cancer Cells” (International Journal of Molecular Sciences, 2022)",
  "key": {"T24 cells": {"tested_on": "T24 cells", "assay": "Apoptosis by Annexin V-FITC/PI flow cytometry, T24", "type": "cell-based, human", "conditions": "T24, at IC50 concentration (4h 8.05 μM; 6h 8.93 μM); control 1.18%", "method": "(§1) The apoptosis ratios of MGC80-3 or T24 cell lines induced by the selected compounds at the concentration of IC50 and 0.5 IC50 were quantitatively determined by flow cytometry. Four quadrant images (Q1, Q2, Q3 and Q4) were observed by flow cytometric analysis. The results of apoptosis ratios (including the early and late apoptosis ratios) after 12 h are presented in Figure 6 (MGC80-3) and Figure 7 (T24). […] After treatment with compound 6h, 5.62% (3.43 μM) and 14.25% (6.85 μM) of the cells were apoptotic. These were higher percentages than the one observed in the control (0.586%). […] The results evidently illustrate that representative compounds 5d and 6h or 4h and 6h could suppress cell proliferation by inducing apoptosis in the early apoptotic period.\n(§2) The apoptosis assay and the cell cycle analysis were carried out by cytometry (FACSVerse, BD, Piscataway, NJ, USA) at an excitation wavelength of 488 nm according to the method described in the literature with slight modifications. The cells were seeded at 2 × 10^6/well and washed by cold PBS. The buffer solutions were prepared using 0.1 M pH 7.4 Hepes/NaOH, 1.4 M NaCl, and 25 mM CaCl2."}, "MGC80-3 cells": {"tested_on": "MGC80-3 cells", "assay": "Apoptosis by Annexin V-FITC/PI flow cytometry, MGC80-3", "type": "cell-based, human", "conditions": "control 0.586%", "method": "as §1, with “The results of apoptosis ratios (including the early and late apoptosis ratios) after 12 h are presented in Figure 6 (MGC80-3) and Figure 7 (T24).” left out\nas §2"}, "[1]": {"tested_on": "large cell lung cancer cells (NCI-H460)", "assay": "MTT antiproliferative assay, NCI-H460", "type": "cell-based, human", "conditions": "Homo sapiens, read-out: Effect against cell viability (IC50), NCI-H460"}, "[2]": {"tested_on": "human foreskin fibroblasts (HFF)", "assay": "MTT antiproliferative assay, HFF", "type": "cell-based", "conditions": "Homo sapiens, Fibroblast, read-out: Effect against cell viability (IC50), HFF"}, "[3]": {"tested_on": "hepatocellular carcinoma bel-7404 (BEL-7404)", "assay": "MTT antiproliferative assay, BEL-7404", "type": "cell-based, human", "conditions": "Homo sapiens, read-out: Effect against cell viability (IC50), BEL-7404"}, "zebrafish embryos": {"tested_on": "zebrafish embryos", "conditions": "zebrafish embryos 72 hpf"}, "[4]": {"tested_on": "human normal liver cells (LO2)", "assay": "Cytotoxicity against normal liver cells LO2", "type": "cell-based", "conditions": "Homo sapiens, MTT, read-out: Effect against cell viability (IC50), LO2"}, "[5]": {"tested_on": "human gastric cancer cells-803 (MGC-803)", "assay": "MTT antiproliferative assay, MGC-803", "type": "cell-based", "conditions": "Homo sapiens, MGC-803, MTT, read-out: Effect against cell viability (IC50), MGC-803"}},
  "note": "Where two headings read alike, the source gives them in different places. Marks after values point to notes of the source that are not given here.",
  "data": [
    {"smiles": "COc1ccc(-c2nnc(N=C3c4ccccc4NC4C=CC(C)=CC34)s2)cc1", "note": "(centres unmarked) [6h, 7-methyl-N-(5-(4-methoxyphenyl)-1,3,4-thiadiazol-2-yl)-10,10a-dihydroacridin-9(8aH)-imine]", "values": [
      {"measurement": "apoptosis ratio", "setting": "T24 cells", "result": 10.749, "unit": "%"},
      {"measurement": "apoptosis percentage (early and late)", "setting": "MGC80-3 cells; MGC80-3, 0.5 IC50 (5d 2.76 μM; 6h 3.43 μM)", "result": 5.62, "unit": "%"},
      {"measurement": "apoptosis percentage (early and late)", "setting": "MGC80-3 cells; MGC80-3, IC50 (5d 5.52 μM; 6h 6.85 μM)", "result": 14.25, "unit": "%"},
      {"measurement": "IC50", "setting": "[1]", "result": "13.3 ± 1.39", "unit": "µM"},
      {"measurement": "IC50", "setting": "[2]", "result": "33.9 ± 1.28", "unit": "µM"},
      {"measurement": "IC50", "setting": "[3]", "result": "20.2 ± 1.59", "unit": "µM"},
      {"measurement": "MAR (malformation rate)", "setting": "zebrafish embryos; 1 mg/mL", "result": 35, "unit": "% ^b"},
      {"measurement": "MOR (mortality rate)", "setting": "zebrafish embryos; 1 mg/mL", "result": 0, "unit": "%"},
      {"measurement": "MAR (malformation rate)", "setting": "zebrafish embryos; 1.5 mg/mL", "result": 80, "unit": "% ^b"},
      {"measurement": "MOR (mortality rate)", "setting": "zebrafish embryos; 1.5 mg/mL", "result": 0, "unit": "%"},
      {"measurement": "MAR (malformation rate)", "setting": "zebrafish embryos; 2 mg/mL", "result": 65, "unit": "% ^b"},
      {"measurement": "MOR (mortality rate)", "setting": "zebrafish embryos; 2 mg/mL", "result": 15, "unit": "% ^b"},
      {"measurement": "IC50", "setting": "[4]", "result": "43.8 ± 2.63", "unit": "µM"},
      {"measurement": "IC50", "setting": "[5]", "result": "6.85 ± 0.84", "unit": "µM"}
    ]}
  ]
}
